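Dose response: 5 concentrations. Exposure: 48 h. Format: 96-well plates. Endpoint: linear interpolation; highest concentration if not reached. At the GI50, growth is halved.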 Active and inactive are the calls of the source. Cut-off read from the data, not from the text of the source: active = GI50 up to about 1.1 µM and inactive = higher.
How the values were obtained:
Experiment in all cases: growth of human tumour cells (NCI), 48 h
KM12 = system: KM12
TK-10 = system: TK-10
UACC-62 = system: UACC-62
HT-29 = system: HT-29
786-0 = system: 786-0
EKVX = system: EKVX
LOX IMVI = system: LOX IMVI
OVCAR-4 = system: OVCAR-4
HCT-116 = system: HCT-116
ACHN = system: ACHN
NCI-H460 = system: NCI-H460
A498 = system: A498
CCRF-CEM = system: CCRF-CEM
SF-539 = system: SF-539
COLO 205 = system: COLO 205
CAKI-1 = system: CAKI-1
Malme-3M = system: Malme-3M
U-251 = system: U-251
RXF 393 = system: RXF 393
MCF7 = system: MCF7

Row | Structure (SMILES) | GI50 (KM12) | GI50 (TK-10) | GI50 (UACC-62) | GI50 (HT-29) | GI50 (786-0) | GI50 (EKVX) | GI50 (LOX IMVI) | GI50 (OVCAR-4) | GI50 (HCT-116) | GI50 (ACHN) | GI50 (NCI-H460) | GI50 (A498) | GI50 (CCRF-CEM) | GI50 (SF-539) | GI50 (COLO 205) | GI50 (CAKI-1) | GI50 (Malme-3M) | GI50 (U-251) | GI50 (RXF 393) | GI50 (MCF7)
1 | C=CC(=O)NCNC(=O)C=C | > 100 µM (inactive) | > 100 µM (inactive) | > 100 µM (inactive) | > 100 µM (inactive) | > 100 µM (inactive) | > 100 µM (inactive) | > 100 µM (inactive) | > 100 µM (inactive) | > 100 µM (inactive) | > 100 µM (inactive) | > 100 µM (inactive) | > 100 µM (inactive) | > 100 µM (inactive) | > 100 µM (inactive) | > 100 µM (inactive) | > 100 µM (inactive) | > 100 µM (inactive) | > 100 µM (inactive) | – | –
2 | Cc1cc(Cl)ccc1NC(=O)C(=O)Cc1ccc([N+](=O)[O-])c([N+](=O)[O-])c1CC(=O)C(=O)Nc1ccc(Cl)cc1C | > 100 µM (inactive) | > 100 µM (inactive) | > 100 µM (inactive) | > 100 µM (inactive) | > 100 µM (inactive) | > 100 µM (inactive) | > 100 µM (inactive) | > 100 µM (inactive) | > 100 µM (inactive) | > 100 µM (inactive) | > 100 µM (inactive) | > 100 µM (inactive) | 78.7 µM (inactive) | 35 µM (inactive) | 61.1 µM (inactive) | > 100 µM (inactive) | > 100 µM (inactive) | > 100 µM (inactive) | > 100 µM (inactive) | –
3 | NC(=O)c1csc(C2CCC(CO)O2)n1 (centres undefined) | > 100 µM (inactive) | > 100 µM (inactive) | > 100 µM (inactive) | > 100 µM (inactive) | > 100 µM (inactive) | > 100 µM (inactive) | > 100 µM (inactive) | > 100 µM (inactive) | > 100 µM (inactive) | > 100 µM (inactive) | > 100 µM (inactive) | > 100 µM (inactive) | > 100 µM (inactive) | > 100 µM (inactive) | > 100 µM (inactive) | > 100 µM (inactive) | > 100 µM (inactive) | > 100 µM (inactive) | – | –
4 | Cn1c2c(c3ccccc31)CCN(CCN1CCN(c3ccccc3)CC1)C2=O | – | > 100 µM (inactive) | > 100 µM (inactive) | > 100 µM (inactive) | 68.2 µM (inactive) | > 100 µM (inactive) | > 100 µM (inactive) | – | 58.1 µM (inactive) | > 100 µM (inactive) | > 100 µM (inactive) | – | > 100 µM (inactive) | 41.3 µM (inactive) | > 100 µM (inactive) | > 100 µM (inactive) | – | > 100 µM (inactive) | 26.7 µM (inactive) | –
5 | CN1c2ccccc2N(C(=O)c2ccccc2)C(CC(=O)O)c2cccn21 (centres undefined) | > 100 µM (inactive) | > 100 µM (inactive) | 55.3 µM (inactive) | > 100 µM (inactive) | > 100 µM (inactive) | > 100 µM (inactive) | > 100 µM (inactive) | > 100 µM (inactive) | – | > 100 µM (inactive) | > 100 µM (inactive) | > 100 µM (inactive) | > 100 µM (inactive) | > 100 µM (inactive) | > 100 µM (inactive) | > 100 µM (inactive) | > 100 µM (inactive) | > 100 µM (inactive) | 43.1 µM (inactive) | –
6 | C=C1CC(C/C=C(\C)CC2CC(=C)C(=O)O2)OC1=O (centres undefined) | > 100 µM (inactive) | > 100 µM (inactive) | > 100 µM (inactive) | > 100 µM (inactive) | > 100 µM (inactive) | > 100 µM (inactive) | > 100 µM (inactive) | > 100 µM (inactive) | > 100 µM (inactive) | > 100 µM (inactive) | > 100 µM (inactive) | > 100 µM (inactive) | > 100 µM (inactive) | > 100 µM (inactive) | > 100 µM (inactive) | > 100 µM (inactive) | > 100 µM (inactive) | > 100 µM (inactive) | > 100 µM (inactive) | –
7 | Cc1ccc(S(=O)OCC23CC4CC(CC(C4)C2)C3)cc1 (centres undefined) | > 100 µM (inactive) | > 100 µM (inactive) | > 100 µM (inactive) | > 100 µM (inactive) | > 100 µM (inactive) | > 100 µM (inactive) | > 100 µM (inactive) | > 100 µM (inactive) | > 100 µM (inactive) | > 100 µM (inactive) | > 100 µM (inactive) | > 100 µM (inactive) | – | > 100 µM (inactive) | > 100 µM (inactive) | > 100 µM (inactive) | > 100 µM (inactive) | > 100 µM (inactive) | > 100 µM (inactive) | –
8 | CC(C)(C)C[P+](C)(C)c1ccccc1 | > 100 µM (inactive) | > 100 µM (inactive) | > 100 µM (inactive) | > 100 µM (inactive) | > 100 µM (inactive) | > 100 µM (inactive) | > 100 µM (inactive) | > 100 µM (inactive) | > 100 µM (inactive) | > 100 µM (inactive) | > 100 µM (inactive) | – | > 100 µM (inactive) | > 100 µM (inactive) | > 100 µM (inactive) | > 100 µM (inactive) | > 100 µM (inactive) | > 100 µM (inactive) | > 100 µM (inactive) | –
9 | NS(=O)(=O)c1ccc(NC(=O)CC(=O)Nc2ccc(S(N)(=O)=O)cc2)cc1 | – | > 100 µM (inactive) | > 100 µM (inactive) | > 100 µM (inactive) | > 100 µM (inactive) | > 100 µM (inactive) | > 100 µM (inactive) | > 100 µM (inactive) | > 100 µM (inactive) | > 100 µM (inactive) | – | > 100 µM (inactive) | > 100 µM (inactive) | > 100 µM (inactive) | > 100 µM (inactive) | > 100 µM (inactive) | > 100 µM (inactive) | > 100 µM (inactive) | – | –
10 | CCN(CC)CC(=O)Nc1ccc2c(c1)C(=O)c1ccc(NC(=O)CN(CC)CC)cc1C2=O | 22.3 µM (inactive) | 43 µM (inactive) | 73.8 µM (inactive) | 30.5 µM (inactive) | 18.9 µM (inactive) | 89.3 µM (inactive) | 14.7 µM (inactive) | 39.1 µM (inactive) | 13.6 µM (inactive) | 25.5 µM (inactive) | 14.1 µM (inactive) | 12.9 µM (inactive) | 20.7 µM (inactive) | 16.3 µM (inactive) | 15.2 µM (inactive) | 70.1 µM (inactive) | – | 21.6 µM (inactive) | 3.22 µM (inactive) | –
11 | CN1CCN(C(=S)N(C)C(=O)c2cccs2)CC1 | > 100 µM (inactive) | > 100 µM (inactive) | > 100 µM (inactive) | > 100 µM (inactive) | > 100 µM (inactive) | – | > 100 µM (inactive) | > 100 µM (inactive) | – | > 100 µM (inactive) | > 100 µM (inactive) | – | > 100 µM (inactive) | – | > 100 µM (inactive) | – | > 100 µM (inactive) | > 100 µM (inactive) | > 100 µM (inactive) | > 100 µM (inactive)
12 | CCOC(=O)C1=C(C(=O)OCC)C2(c3ccccc3)N(O1)c1ccccc1C2(C)C (centres undefined) | 58.1 µM (inactive) | > 100 µM (inactive) | 36.5 µM (inactive) | 69.3 µM (inactive) | 75.7 µM (inactive) | 45.4 µM (inactive) | – | 18.7 µM (inactive) | 32.4 µM (inactive) | – | 39.5 µM (inactive) | 58.7 µM (inactive) | 39.4 µM (inactive) | 43.5 µM (inactive) | 51.5 µM (inactive) | 26.7 µM (inactive) | 52.2 µM (inactive) | 34 µM (inactive) | 46 µM (inactive) | –
13 | COc1cc(CNc2nc3c(N)cc(C(F)(F)F)cc3nc2-c2ccccc2)cc(OC)c1OC | 18 µM (inactive) | > 10 µM (inactive) | 35.2 µM (inactive) | 13.4 µM (inactive) | 88.3 µM (inactive) | 3.41 µM (inactive) | 18.5 µM (inactive) | 8.95 µM (inactive) | 19.7 µM (inactive) | 23.7 µM (inactive) | 25.9 µM (inactive) | 61.9 µM (inactive) | > 10 µM (inactive) | > 10 µM (inactive) | 38.5 µM (inactive) | > 10 µM (inactive) | 40 µM (inactive) | 63.8 µM (inactive) | 8.47 µM (inactive) | –
14 | O=C(CCc1nnc(S)[nH]1)Nc1ccc(Cl)c(Cl)c1 | 21.9 µM (inactive) | 79.4 µM (inactive) | 2.98 µM (inactive) | > 100 µM (inactive) | > 100 µM (inactive) | > 100 µM (inactive) | – | 58.2 µM (inactive) | 47 µM (inactive) | 12.6 µM (inactive) | 90.8 µM (inactive) | > 100 µM (inactive) | 80.4 µM (inactive) | 62.5 µM (inactive) | > 100 µM (inactive) | > 100 µM (inactive) | > 100 µM (inactive) | 99.5 µM (inactive) | – | –
15 | O=C1NC(=O)C(C(=O)C(=O)Nc2ccc(Br)cc2)C(=O)N1 | – | – | > 100 µM (inactive) | > 100 µM (inactive) | > 100 µM (inactive) | > 100 µM (inactive) | > 100 µM (inactive) | > 100 µM (inactive) | > 100 µM (inactive) | > 100 µM (inactive) | – | > 100 µM (inactive) | > 100 µM (inactive) | > 100 µM (inactive) | > 100 µM (inactive) | – | > 100 µM (inactive) | > 100 µM (inactive) | 5.04 µM (inactive) | –
16 | CC[n+]1c(/C=C/c2ccc(N(CCCl)CCCl)cc2)ccc2cc(Br)ccc21 | 1.68 µM (inactive) | 4.48 µM (inactive) | 1.19 µM (inactive) | 2.86 µM (inactive) | 1.84 µM (inactive) | 3.52 µM (inactive) | 1.47 µM (inactive) | 1.01 µM (active) | 131 µM (inactive) | 3.17 µM (inactive) | 2.65 µM (inactive) | 1310 µM (inactive) | 0.345 µM (active) | 1.55 µM (inactive) | 69.7 µM (inactive) | 2.62 µM (inactive) | 1.13 µM (inactive) | 1.31 µM (inactive) | 1.31 µM (inactive) | –
